Results on two molecules are retold here after paper PMC5430874 (Scientific Reports, 2017).

Assay [1] has as its system rats. More on the design: method as in PMID 26349500. To be noted: cited from earlier work.
Assay [2] concerns the target T1, GPR139 H264A7x31 (Homo sapiens, UniProt Q6DWJ6, H264A).
T1 construct: mGluR5 signal peptide (N); expressed in transfected cells; host or cells: HEK293
T1 sequence (Q6DWJ6 2-353 H264A limits assumed): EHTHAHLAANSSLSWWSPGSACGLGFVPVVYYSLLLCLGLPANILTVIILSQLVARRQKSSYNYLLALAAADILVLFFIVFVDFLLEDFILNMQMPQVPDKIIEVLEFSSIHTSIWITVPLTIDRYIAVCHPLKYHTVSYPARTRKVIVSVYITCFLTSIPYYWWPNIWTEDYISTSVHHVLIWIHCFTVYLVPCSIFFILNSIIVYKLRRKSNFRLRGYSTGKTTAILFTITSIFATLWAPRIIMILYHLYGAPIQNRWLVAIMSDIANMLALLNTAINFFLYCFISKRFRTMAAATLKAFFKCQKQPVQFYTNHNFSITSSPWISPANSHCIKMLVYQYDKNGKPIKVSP
The assay is described as follows: Fluo-4 Ca2+-assay, GPR139 mutant H264A. In kind it is cell-based. An excerpt: (§1) To study the influence of specific amino acids in the predicted binding pocket on receptor function, the desired mutations were introduced into an N-terminally c-myc-tagged wild type human GPR139 (NM_001002911.3) in the pEGFP-N1 vector (BD Biosciences)[32], [33]. As previously described, these plasmids carry the signal peptide of mGluR5 to promote cell surface expression followed by a c-myc epitope to enable detection of total and surface expression by ELISA, followed by an engineered MluI and NotI site for easy insertion of the receptor of interest. Furthermore, the start-codon in the GPR139 sequence was deleted to ensure c-myc-tagging. […]
(§2) The Ca^2+ measurements were preformed using the Fluo-4 NW Calcium Assay Kit (Invitrogen, Molecular Probes, F36206) as previously described. […] Intracellular calcium changes were recorded as indicated on either a NOVOstar (BMG Labtech) at 37 °C with an excitation filter of 485 nm and an emission filters 520 nm or a FlexStation 3 Benchtop Multi-Mode Microplate Reader (Molecular Devices) at 37 °C with an excitation wavelength of 485 nm and emission of 525 nm.
(§3) All pharmacological data have been analyzed by using Prism 6.0 (GraphPad Software Inc., San Diego). […] Changes in potency (pEC50) and span of myc-GPR139(WT) in comparison to untagged GPR139(WT) was statistically analyzed with a paired t-test and significance was accepted at p < 0.05. […]

The target in assay [3] is T2, GPR139 E105Q3x29 (Homo sapiens, UniProt Q6DWJ6, E105Q).
T2 construct: mGluR5 signal peptide (N); expressed in transfected cells; host or cells: HEK293
T2 sequence (Q6DWJ6 2-353 E105Q limits assumed): T1 sequence (Q6DWJ6 2-353 H264A limits assumed) with E104Q, A263H
The assay can be described thus: Fluo-4 Ca2+-assay, GPR139 mutant E105Q. In kind it is cell-based.
Text: as §1, §2, §3

SMILES strings stand for the structures. Residue numbers refer to the chain shown, from its start.

Take `C[C@@H](NC(=O)CNC(=O)c1cccc(Cl)c1)c1ccccc1` (racemic) [Compound 7c]: in assay [1], the spontaneous locomotion activity entry is given as “decreased spontaneous locomotion activity”.

Usually EC50 stands for the midpoint of the concentration-response curve. A low value points to a more potent agent. As usually defined, the Emax is the size of the effect at its maximum, as opposed to the concentration needed. Turning to `COc1cc(OC)cc(C(=O)NNC(=O)Nc2cccc3ccccc23)c1` [Compound 1a], the EC50 was 251 nM in assay [2] (H264A mutant) and 145 nM in assay [3] (E105Q mutant). The Emax in assay [2] (H264A, normalized to buffer (0%) and 8 µM 1a (100%)) is 148 ± 15%; in assay [3] (E105Q, normalized to buffer (0%) and 8 µM 1a (100%)), 177 ± 36%.
